Assay results: ChEMBL document CHEMBL4316639, “Clavukoellians A-F, Highly Rearranged Nardosinane Sesquiterpenoids with Antiangiogenic Activity from Clavularia koellikeri” (2019)
Calls of active or inactive are those of the source. No cut-off for these calls is given here.

Assays:
MV4-11 = experiment: Antiproliferative activity in human MV4-11 cells assessed as inhibition of cell proliferation by Cell-titer-Glo method; type: functional
MOLM-13 = experiment: Antiproliferative activity in human MOLM13 cells assessed as inhibition of cell proliferation by Cell-titer-Glo method; type: functional
OE19 = experiment: Antiproliferative activity in human OE19 cells assessed as inhibition of cell proliferation by Cell-titer-Glo method; type: functional
KYSE-520 cell line = experiment: Antiproliferative activity in human KYSE520 cells assessed as inhibition of cell proliferation by Cell-titer-Glo method; type: functional
[1] = Antiproliferative activity in human OE21 cells assessed as inhibition of cell proliferation by Cell-titer-Glo method; type: functional
HUVEC [2] = experiment: Antiangiogenic activity in HUVEC assessed as inhibition of cell migration incubated for 6 to 24 hrs by wound healing assay; type: functional, cell-based; conditions: Homo sapiens
HUVEC [3] = experiment: Antiangiogenic activity in HUVEC assessed as inhibition of cell migration at 2.5 uM incubated for 6 to 24 hrs by wound healing assay; type: functional, cell-based; conditions: Homo sapiens

Structure (SMILES) | GI50 (MV4-11) | GI50 (MOLM-13) | GI50 (OE19) | GI50 (KYSE-520 cell line) | GI50 [1] | Activity (HUVEC [2]) | Activity (HUVEC [3])
C[C@@H]1C(=O)O[C@]23C=CC(=O)[C@H]1[C@]2(C)[C@@H](C)CC[C@H]3O | 6.4 to 8.6 µM | 6.4 to 8.6 µM | 6.4 to 8.6 µM | 6.4 to 8.6 µM | 6.4 to 8.6 µM |  | 
C/C1=C/[C@@]2(C)C(=CCC[C@@H]2C)CC[C@H](O)[C@H]1O |  |  |  |  |  | Dose-dependent effect | Active
CC1=C([C@@]2(C)C3=CC(=O)O[C@@H]3CC[C@@H]2C)C(=O)NC1=O |  |  |  |  |  | Dose-dependent effect | Active
